This passage reports TGI and GI50 results from PubChem BioAssay (NCI).

Holding throughout (experiment): NCI-60 cell line screen, 48 h
The test system of experiment [1] is OVCAR-5 ovarian.
Experiment [2] relates to TK-10 renal.
Experiment [3] has as its system BT-549 breast.
In experiment [4] the test system is UO-31 renal.
Experiment [5] relates to SR leukemia.
The test system of experiment [6] is SK-OV-3 ovarian.
The subject of experiment [7] is HT29 colon.
Experiment [8] concerns A549 NSCLC.
For experiment [9], the system named is MOLT-4 leukemia.
Experiment [10] deals with HL-60(TB) leukemia.

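Tested at 5 concentrations; 48 h exposure; 96-well plates; endpoints linearly interpolated, else capped at highest concentration. GI50: concentration for 50% inhibition of growth. TGI marks complete inhibition of growth.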

For `CCOC(=O)C1(Br)C(c2ccccc2)NC(=O)NC1(C)Br` (stereo not given), the TGI in experiment [1] is above 100 µM; in [2], above 100 µM; in experiment [3], 65.9 µM; in [4], above 100 µM; in experiment [5] it was above 100 µM; in [6], above 100 µM. Besides, the TGI in experiment [7] was above 100 µM; in experiment [8], above 100 µM; in experiment [9] it was above 73.7 µM; in experiment [10], 46.4 µM. The GI50 in experiment [3] was 14 µM.

`C[C@H](NC(=O)[C@@H]1CSSC[C@@H](NC(=O)c2nc3ccccc3cc2O)C(=O)NCC(=O)N1C)c1ccccc1`: the GI50 is 4.35 µM in experiment [1]; 8.06 µM in experiment [2]; 6.88 µM in experiment [3]; 5.76 µM in [4]; 0.17 µM in experiment [5]; 5.59 µM in experiment [6]. The GI50 in experiment [7] is 1.13 µM; in [8], 7.06 µM; in [9], 0.894 µM; in experiment [10], 1.2 µM. For the same compound, the TGI amounted to 12.1 µM in experiment [1]; 15.5 µM in experiment [2]; 16.1 µM in [3]; 13.3 µM in experiment [4]; 0.877 µM in experiment [5]; 21.2 µM in [6]. The TGI in experiment [7] stood at 3.35 µM; in experiment [8], 15.8 µM; in experiment [9], 3.27 µM; in experiment [10], 4.78 µM.

For the compound `COc1ccc(N2Cc3cnc(Nc4ccccc4)nc3N([C@@H]3CC[C@@H](O)C3)C2=O)cc1`, the GI50 in experiment [1] is 5.54 µM; in experiment [2] it was 1.54 µM; in [3], 5.27 µM; in experiment [4] it was 0.869 µM; in experiment [5], 3.12 µM; in [6], 3.69 µM. In addition, the GI50 in experiment [7] is 3.57 µM; in [8], 5.16 µM; in [9], 2.61 µM; in experiment [10] it was 4.45 µM. For the same compound, the TGI in [1] was above 25 µM; in [2], 12.9 µM; in [3], above 25 µM; in [4] it was above 16.5 µM; in experiment [5], above 16.6 µM; in experiment [6], above 25 µM. For the same compound, the TGI in [7] is above 25 µM; in experiment [8] it was above 25 µM; in experiment [9], above 17.8 µM; in [10], above 20.7 µM.

Regarding `O=C1c2ccc([N+](=O)[O-])cc2-c2c1c1ccccc1c(=O)n2CCCNCCCNCCCn1c2c(c3ccc([N+](=O)[O-])cc3c1=O)C(=O)c1ccccc1-2`, the GI50 in [1] was 3.05 µM; in experiment [2] it was 5.32 µM; in experiment [3], 4.91 µM; in experiment [4], 10.4 µM; in experiment [5], 0.0306 µM; in experiment [6] it was 4.79 µM. For the same compound, the GI50 in [7] was 0.182 µM; in experiment [8], 2.69 µM; in [9], 0.129 µM; in experiment [10], 2.09 µM. Moreover, the TGI in experiment [1] is 11.3 µM; in experiment [2], 33.9 µM; in [3] it was 37.2 µM; in experiment [4] it was 33.8 µM; in [5], 2.83 µM; in experiment [6], 19.2 µM. The TGI is 1.48 µM in experiment [7], above 40.8 µM in experiment [8], 2.11 µM in [9] and 7.48 µM in experiment [10].

Turning to `CN1CCN(c2ccc(NC(=O)c3nc4ccc5[nH]ncc5c4c4c3CCCC4)cc2C(F)(F)F)CC1`, the GI50 in experiment [1] was 1.5 µM; in [2], 1.04 µM; in experiment [3] it was 6.07 µM; in experiment [4] it was 0.843 µM; in experiment [5], 0.9 µM; in experiment [6], 1.48 µM. Moreover, the GI50 in experiment [7] is 1.02 µM; in experiment [8], 1.12 µM; in [9], 1.09 µM; in experiment [10] it was 0.969 µM. The TGI in [1] was 8.39 µM; in experiment [2], 2.2 µM; in [3], 12.4 µM; in experiment [4], 1.65 µM; in [5], 2.81 µM; in experiment [6] it was 5.25 µM. Besides, the TGI is 3.06 µM in [7], 3.05 µM in experiment [8], 3.08 µM in experiment [9] and 2.1 µM in [10].

On to `C=C1SC(=Nc2c(C)cc(C)cc2C)N(C(=O)c2sc3ccccc3c2Cl)C12CCCCC2`, for which the GI50 was above 100 µM in experiment [1]; above 100 µM in experiment [2]; above 100 µM in experiment [3]; 63.8 µM in experiment [4]; 13 µM in experiment [5]; above 100 µM in experiment [6]. The GI50 in experiment [7] is 58.5 µM; in [8] it was above 100 µM; in experiment [9], 26.3 µM; in experiment [10], 16.5 µM. Further, the TGI in [1], in experiment [2], in [3], in [4], in experiment [5] and in [6] was above 100 µM each time. For the same compound, the TGI in experiment [7], in experiment [8], in [9] and in [10] was above 100 µM each time.

Regarding `CO/C(=N\N=C\c1cccc(Cl)c1)c1ccncc1`, the TGI in experiment [1], in [2], in experiment [3], in [4], in experiment [5] and in [7] was above 10 µM each time. Besides, the TGI in experiment [8], in experiment [9] and in experiment [10] was above 10 µM throughout.

Regarding `COc1ccc(Nc2ncc(Br)c(NCCCNC(=O)C3CCC3)n2)cc1`, the GI50 is 10.8 µM in experiment [1]; 5.46 µM in experiment [2]; 3.62 µM in experiment [3]; 2.55 µM in experiment [4]; 4.34 µM in experiment [5]; 14.1 µM in experiment [6]. Further, the GI50 was 18.7 µM in [7], 14.3 µM in [8], 5.92 µM in experiment [9] and 5.59 µM in [10]. In addition, the TGI in experiment [1] amounted to 40.2 µM; in experiment [2], 38.7 µM; in [3], 15.9 µM; in experiment [4] it was 13.5 µM; in experiment [5], 40.1 µM; in [6] it was 36.6 µM. The TGI in experiment [7] is 85.4 µM; in [8], 37.8 µM; in experiment [9] it was above 100 µM; in experiment [10], 45.8 µM.
